Assay results reported in the supplement of paper PMC10307832.

Key:
Experiment in all cases: relative viability (nuclei count vs DMSO), 5 days (fraction); higher = more cells survive
[1] = compound: CCN1C(=O)C2=CC(=C(N=C2N(C1=O)C3CC3)N)C(=O)N + COc1cccc2cc(-c3nc([C@H]4CC[C@H](C(=O)O)CC4)n4ncnc(N)c34)[nH]c12 [OSI-027] (partner 0.5 µM)
Outline: (§1)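 After 5 days of treatment, lung cancer cells in 1536-well plates were fixed and stained in a single step (final 0.05% Triton X-100, 1% formaldehyde, 1 ug/ml Hoechst) and their nuclei counted on 4× images. Treatment had been applied by pin tool the day after seeding as one drug alone or as a fixed anchor-drug dose with five library-drug doses (not always all listed) in √10 steps. Relative viability is the nuclei count of treated wells divided by that of vehicle wells, and values are medians of duplicate plates.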

[2] = compound: CCN1C(=O)C2=CC(=C(N=C2N(C1=O)C3CC3)N)C(=O)N + CC1(C)CCC(c2ccc(Cl)cc2)=C(CN2CCN(c3ccc(C(=O)NS(=O)(=O)c4ccc(N[C@H](CCN5CCOCC5)CSc5ccccc5)c(S(=O)(=O)C(F)(F)F)c4)cc3)CC2)C1 [Navitoclax] (partner 0.5 µM)
Outline: as §1

[3] = compound: CCN1C(=O)C2=CC(=C(N=C2N(C1=O)C3CC3)N)C(=O)N + O=C(c1cc(Cc2n[nH]c(=O)c3ccccc23)ccc1F)N1CCN(C(=O)C2CC2)CC1 [Olaparib] (partner 8 µM)
Outline: as §1

[4] = compound: CCN1C(=O)C2=CC(=C(N=C2N(C1=O)C3CC3)N)C(=O)N + CC(=O)Nc1cccc(-n2c(=O)n(C3CC3)c(=O)c3c(Nc4ccc(I)cc4F)n(C)c(=O)c(C)c32)c1 [Trametinib] (partner 0.02 µM)
Outline: as §1

[5] = compound: CCN1C(=O)C2=CC(=C(N=C2N(C1=O)C3CC3)N)C(=O)N + Cc1cc(Nc2cc(N3CCN(C)CC3)nc(Sc3ccc(NC(=O)C4CC4)cc3)n2)n[nH]1 [Tozasertib] (partner 0.1 µM)
Outline: as §1

| Cell Line | relative viability ([1]; first compound 0.253 µM) | relative viability ([1]; first compound 0.8 µM) | relative viability ([1]; first compound 2.53 µM) | relative viability ([1]; first compound 8 µM) | relative viability ([2]; first compound 0.253 µM) | relative viability ([2]; first compound 0.8 µM) | relative viability ([2]; first compound 2.53 µM) | relative viability ([2]; first compound 8 µM) | relative viability ([3]; first compound 0.253 µM) | relative viability ([3]; first compound 0.8 µM) | relative viability ([3]; first compound 2.53 µM) | relative viability ([3]; first compound 8 µM) | relative viability ([4]; first compound 0.253 µM) | relative viability ([4]; first compound 0.8 µM) | relative viability ([4]; first compound 2.53 µM) | relative viability ([4]; first compound 8 µM) | relative viability ([5]; first compound 0.253 µM) | relative viability ([5]; first compound 0.8 µM) | relative viability ([5]; first compound 2.53 µM) | relative viability ([5]; first compound 8 µM) |
| --- | --- | --- | --- | --- | --- | --- | --- | --- | --- | --- | --- | --- | --- | --- | --- | --- | --- | --- | --- | --- |
| NCI-H23 | 0.494 | 0.64 | 0.587 | 0.583 | 0.772 | 0.924 | 0.659 | 0.769 | 0.325 | 0.292 | 0.336 | 0.332 | 0.385 | 0.416 | 0.365 | 0.391 | 0.415 | 0.352 | 0.352 | 0.335 |
| NCI-H322M | 0.498 | 0.498 | 0.512 | 0.549 | 1.06 | 1.12 | 1.14 | 1.13 | 0.855 | 0.785 | 0.753 | 0.822 | 0.522 | 0.457 | 0.469 | 0.586 | 0.526 | 0.475 | 0.493 | 0.511 |
| NCI-H441 | 0.686 | 0.746 | 0.703 | 0.583 | 0.768 | 0.482 | 0.64 | 0.649 | 0.559 | 0.578 | 0.499 | 0.649 | 0.508 | 0.441 | 0.516 | 0.532 | 0.619 | 0.571 | 0.54 | 0.458 |
| NCI-H460 | 0.586 | 0.599 | 0.577 | 0.547 | 1.17 | 1.08 | 1.07 | 1.14 | 0.432 | 0.364 | 0.433 | 0.445 | 0.226 | 0.13 | 0.13 | 0.13 | 0.436 | 0.455 | 0.33 | 0.112 |
| NCI-H520 | 0.296 | 0.315 | 0.346 | 0.304 | 1.04 | 1.22 | 1.02 | 1.41 | 0.335 | 0.341 | 0.356 | 0.3 | 0.65 | 0.692 | 0.657 | 0.676 | 0.426 | 0.397 | 0.382 | 0.451 |
| NCI-H596 | 0.735 | 0.7 | 0.843 | 0.679 | 1.07 | 0.904 | 0.999 | 1.17 | 0.662 | 0.72 | 0.767 | 0.693 | 0.673 | 0.742 | 0.787 | 0.907 | 0.968 | 0.944 | 0.69 | 1.1 |
| NCI-H647 | 0.598 | 0.724 | 0.647 | 0.591 | 1.18 | 1.25 | 1.14 | 1.08 | 0.56 | 0.484 | 0.586 | 0.741 | 0.521 | 0.442 | 0.418 | 0.389 | 0.33 | 0.304 | 0.273 | 0.277 |
| NCI-H727 | 0.59 | 0.528 | 0.654 | 0.723 | 0.463 | 0.51 | 0.484 | 0.596 | 0.81 | 0.705 | 0.539 | 0.774 | 0.39 | 0.436 | 0.422 | 0.386 | 0.534 | 0.71 | 0.608 | 0.603 |
| NCI-H838 | 0.404 | 0.406 | 0.41 | 0.374 | 1.21 | 1.19 | 1.13 | 1.09 | 0.737 | 0.764 | 0.746 | 0.722 | 0.55 | 0.573 | 0.511 | 0.474 | 0.258 | 0.203 | 0.28 | 0.234 |
| NCI-H1355 | 0.5 | 0.464 | 0.455 | 0.376 | 0.969 | 0.987 | 0.861 | 0.921 | 0.8 | 0.702 | 0.759 | 0.721 | 0.429 | 0.387 | 0.383 | 0.438 | 0.587 | 0.616 | 0.509 | 0.515 |
| NCI-H1395 | 0.62 | 0.587 | 0.697 | 0.593 | 1.1 | 1.34 | 1.13 | 1.73 | 0.43 | 0.481 | 0.457 | 0.491 | 1.13 | 0.94 | 1.04 | 1.07 | 0.697 | 0.693 | 0.722 | 0.65 |
| NCI-H1437 | 0.939 | 0.867 | 0.919 | 0.894 | 1.12 | 1.09 | 1.07 | 1.12 | 0.684 | 0.637 | 0.622 | 0.585 | 0.609 | 0.468 | 0.527 | 0.406 | 0.378 | 0.42 | 0.374 | 0.411 |
| NCI-H1650 | 0.577 | 0.444 | 0.629 | 0.544 | 1.1 | 1.25 | 1.1 | 1.19 | 0.707 | 0.665 | 0.714 | 0.733 | 0.572 | 0.571 | 0.563 | 0.611 | 0.394 | 0.404 | 0.38 | 0.342 |
| NCI-H1651 | 0.643 | 0.691 | 0.734 | 0.606 | 0.996 | 1.27 | 0.969 | 1.03 | 0.223 | 0.177 | 0.202 | 0.186 | 0.784 | 0.835 | 0.778 | 0.819 | 0.622 | 0.586 | 0.631 | 0.508 |
| NCI-H1666 | – | 0.838 | 0.863 | 0.834 | 0.991 | 0.942 | 0.645 | 0.867 | 0.719 | 0.724 | 0.856 | 0.737 | 0.906 | 0.778 | 0.83 | 0.815 | – | 0.608 | 0.584 | 0.618 |
